In patent US20130051651A1, “QUANTITATIVE IMAGE ANALYSIS FOR WOUND HEALING ASSAY” (PURDUE RESEARCH FOUNDATION, priority 2010, published 2013):

Test system: MCF7 cells
Assay: wound healing assay analysed with the quantitative image analysis algorithm
Assay type: cell-based
Source text: The wound healing assay, or “scratch” assay, is a traditional method used to study cell proliferation and migration. […] The cultures are then imaged over time using bright field or fluorescence microscopy to monitor the growth and migration of cells into the wound as it is healing.
Illustrative embodiments of the quantitative image analysis algorithm 100 have been tested multiple times and have provided robust and dependable wound healing assay analysis. By way of example, the […] 102 of several wound healing assays were measured at 24 hour time points (up to 96 hours). […] In this experiment, the algorithm took 90 minutes to process five time points for each wound healing assay in a 96 well plate (i.e., a total of 480 bright point images 102 being analyzed). […]
Furthermore, the data produced by the quantitative image analysis algorithm 100 matches traditional wound healing assay data. […]

neuregulin 2β
percentage of wound healing using the wound area calculated by the algorithm (MCF7 cells treated with varying doses, different time points, dose response 48 hours after wound creation (FIGS. 3A, 3B)): dose-dependent increase in healing
healing curve (speed of wound healing) (MCF7 cells, 4 different doses, treated versus untreated cells over time (FIG. 3A)): treated cells healed faster
